# Source: publication PMC4666645 (PLoS Pathogens, 2015)
# Counter-ions that a name gives are not always drawn.
# What was measured:
# [1] = target: Hco-L-AChR-1 (Hco-UNC-38, Hco-UNC-63, Hco-UNC-29.1, Hco-ACR-8) (Haemonchus contortus, UniProt A9XX24+D6MYE9+D6MYF3+D6MYF4); experiment: Two-electrode voltage-clamp on Xenopus oocytes expressing Hco-L-AChR-1; type: cell-based; conditions: for Response to agonist: 100 μM agonist
# Description: H. contortus and P. equorum acr-26 and acr-27 cDNAs were PCR-amplified using primers containing a restriction site in order to be sub-cloned into the expression vector pTB207 that is suitable for in vitro transcription. Primers are listed in S3 Table. The resulting plasmids were linearized with the NheI restriction enzyme (Fermantas) and used as templates for cRNA synthesis using the T7 mMessage mMachine kit (Ambion). Xenopus laevis ovaries were obtained from the University of Rennes, France (CRB Xenope) and defolliculated using 2 mg/ml collagenase type II (Gibco) in the incubation solution containing: 100 mM NaCl, 2 mM KCl, 1.8 mM CaCl2.2H2O, 1 mM MgCl2.6H2O, 5 mM HEPES, 2.5 mM C3H3NaO3, pH 7.5, supplemented with penicillin 100 U/mL and streptomycin 100 μg/mL). The oocytes were injected in the animal pole with a total volume of 36 nL of cRNA mix containing 50 ng/μL of each cRNA in RNase-free water using the Drummond nanoject II microinjector. Microinjected oocytes were kept at 20°C in incubation medium for 4 days to allow the receptors expression. Two-electrode voltage-clamp recordings were carried out using an Oocyte Clamp OC-725C amplifier (Warner instrument) in oocytes being voltage-clamped at -60mV. All agonist preparations were prepared with recording buffer (100 mM NaCl, 2.5 mM KCl, 1 mM CaCl2.2H2O, 5 mM HEPES, pH 7.3). Currents were recorded and analyzed using the pCLAMP 10.4 package (Molecular Devices).
# Supplementary file ppat.1005267.s003.tif: S3 Fig Pharmacological profiles of Hco-L-AChR-1 and Hco-L-AChR-2. […] The bars indicate the time period of the agonist application. Functional expression of Hco-L-AChR-1 requires the co-expression of Hco-UNC-38; Hco-UNC-63; Hco-UNC-29.1 and Hco-ACR-8 AChR subunits with the ancillary proteins Hco-RIC-3.1; Hco-UNC-50 and Hco-UNC-74 whereas Hco-L-AChR-2 requires the co-expression of Hco-UNC-38; Hco-UNC-63 and Hco-UNC-29.1 AChR subunits with the ancillary proteins Hco-RIC-3.1; Hco-UNC-50 and Hco-UNC-74. (C) Scatter plot (mean ± SEM) of normalized currents elicited by 100 μM Mor on Hco-26/27, Hco-L-AChR-1 and Hco-L-AChR-2. Currents have been normalized to and compared with 100 μM ACh elicited currents. Paired Student’s t-test, ***p<0.001. (D) Dose-response relationships of Hco-L-AChR-1 (black circle, n = 7) and Hco-L-AChR-2 (blue squares, n = 9) for Mor. Responses are normalized to 300 μM ACh elicited currents as described in Boulin et al.. […] (TIF) Click here for additional data file.
# [2] = system: C. elegans expressing Peq-26/27; experiment: Thrashing assay on transgenic C. elegans expressing Peq-26/27; type: in vivo, Caenorhabditis elegans
# Description: Taking advantage of the absence of acr-26 and acr-27 homologs in the C. elegans genome, we used wild type N2 worms to express these two parasitic nematode AChR subunits. […] For Peq-ACR-26 and Peq-ACR-27, even though the localization of these subunits in Parascaris equorum remains to be investigated in more detail, we also used myo3 as a promoter in order to compare the functional impact of Hco-26/27 and Peq-26/27 on both motility and drug sensitivity in transgenic C. elegans.
# Worms were maintained at 20°C on nematode growth medium (NGM) plates and fed on a bacterial lawn (Escherichia coli OP50). Bristol N2 was used as a reference wild-type C. elegans strain. Dose-response assays were performed on gravid adults placed in wells of a 96-well plate containing M9 salt solution (3 g/L KH2PO4, 6 g/L Na2HPO4, 5 g/L NaCl, and 1 mM MgSO4 with BSA at 0.1%) with varying anthelmintic concentrations. After 10 min, worm thrashing was counted for 1 min. A thrash was defined as a change in the direction of bending at the mid-body to return to the initial position. For each drug concentration, 30 worms were tested. Hco-acr-26, Hco-acr-27, Peq-acr-26 and Peq-acr-27 coding sequences were sub-cloned into the pPD96.52 (Addgene) vector containing the muscle promoter Pmyo3. Primer sequences containing the suitable restriction sites are listed in S3 Table. Extrachromosomal transgenic strains of C. elegans were obtained by micro-injecting DNA into the gonads of young adult hermaphrodite worms as described. N2 worms were injected with different mixes containing Pmyo3::Hco-acr-26; Pmyo3::Hco-acr-27; Pmyo3::Peq-acr-26; Pmyo3::Peq-acr-27 alone or in combination (Pmyo3::Hco-acr-26 + Pmyo3::Hco-acr-27 or Pmyo3::Peq-acr-26 + Pmyo3::Peq-acr-27) with a final concentration of 40 ng/μl for each plasmid. The plasmid pPD118.33_Pmyo2::gfp (Addgene) was co-injected at 25 ng/μl as a transformation marker. […] Thrashes produced by each worm during 1 minute were counted after a 10 minutes equilibration period. After drug application, thrashes were counted after 10, 20 and 30 minutes of exposure. […]
# Hco-L-AChR-1 (Hco-UNC-38, Hco-UNC-63, Hco-UNC-29.1, Hco-ACR-8), sequence (D6MYF3 20-512): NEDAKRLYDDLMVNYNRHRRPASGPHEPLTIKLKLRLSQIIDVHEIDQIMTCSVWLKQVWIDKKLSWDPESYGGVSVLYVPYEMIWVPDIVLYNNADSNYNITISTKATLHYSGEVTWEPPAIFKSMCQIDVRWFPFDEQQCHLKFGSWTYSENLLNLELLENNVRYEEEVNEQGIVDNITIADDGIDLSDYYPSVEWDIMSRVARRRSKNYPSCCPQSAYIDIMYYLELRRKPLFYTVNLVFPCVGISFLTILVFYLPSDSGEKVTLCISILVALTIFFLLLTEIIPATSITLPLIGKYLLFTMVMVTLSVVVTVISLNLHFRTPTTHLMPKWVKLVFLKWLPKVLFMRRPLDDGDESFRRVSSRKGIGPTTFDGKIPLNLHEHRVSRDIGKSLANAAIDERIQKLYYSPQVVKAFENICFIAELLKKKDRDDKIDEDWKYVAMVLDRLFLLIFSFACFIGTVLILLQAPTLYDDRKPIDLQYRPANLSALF
# Hco-L-AChR-1 (Hco-UNC-38, Hco-UNC-63, Hco-UNC-29.1, Hco-ACR-8), sequence (D6MYF4 22-504): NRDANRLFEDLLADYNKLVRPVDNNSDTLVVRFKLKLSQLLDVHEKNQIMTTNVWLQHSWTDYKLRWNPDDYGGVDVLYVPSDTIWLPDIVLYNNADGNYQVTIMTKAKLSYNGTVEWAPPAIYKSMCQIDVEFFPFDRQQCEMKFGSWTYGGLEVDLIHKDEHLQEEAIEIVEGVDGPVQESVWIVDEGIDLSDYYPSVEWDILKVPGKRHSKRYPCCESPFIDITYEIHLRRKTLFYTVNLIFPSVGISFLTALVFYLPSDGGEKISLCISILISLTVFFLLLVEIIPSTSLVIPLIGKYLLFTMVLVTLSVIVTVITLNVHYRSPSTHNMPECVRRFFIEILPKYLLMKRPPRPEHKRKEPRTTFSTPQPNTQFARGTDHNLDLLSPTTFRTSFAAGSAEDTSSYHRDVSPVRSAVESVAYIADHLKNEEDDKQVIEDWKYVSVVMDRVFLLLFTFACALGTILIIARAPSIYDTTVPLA
# Hco-L-AChR-1 (Hco-UNC-38, Hco-UNC-63, Hco-UNC-29.1, Hco-ACR-8), sequence (D6MYE9 21-498): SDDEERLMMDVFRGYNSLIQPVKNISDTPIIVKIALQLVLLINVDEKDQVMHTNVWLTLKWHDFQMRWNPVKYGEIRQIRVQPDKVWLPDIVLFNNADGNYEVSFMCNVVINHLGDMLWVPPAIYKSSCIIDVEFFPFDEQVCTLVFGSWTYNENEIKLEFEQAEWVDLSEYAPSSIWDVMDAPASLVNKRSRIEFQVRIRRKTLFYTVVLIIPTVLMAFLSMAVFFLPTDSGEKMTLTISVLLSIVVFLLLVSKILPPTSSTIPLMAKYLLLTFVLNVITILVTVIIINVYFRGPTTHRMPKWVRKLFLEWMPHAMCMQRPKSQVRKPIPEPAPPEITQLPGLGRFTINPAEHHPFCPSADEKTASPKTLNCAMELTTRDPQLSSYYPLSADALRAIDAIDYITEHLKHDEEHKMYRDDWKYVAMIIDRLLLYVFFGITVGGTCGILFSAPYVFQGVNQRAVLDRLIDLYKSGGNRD
# Hco-L-AChR-1 (Hco-UNC-38, Hco-UNC-63, Hco-UNC-29.1, Hco-ACR-8), sequence (A9XX24 19-536): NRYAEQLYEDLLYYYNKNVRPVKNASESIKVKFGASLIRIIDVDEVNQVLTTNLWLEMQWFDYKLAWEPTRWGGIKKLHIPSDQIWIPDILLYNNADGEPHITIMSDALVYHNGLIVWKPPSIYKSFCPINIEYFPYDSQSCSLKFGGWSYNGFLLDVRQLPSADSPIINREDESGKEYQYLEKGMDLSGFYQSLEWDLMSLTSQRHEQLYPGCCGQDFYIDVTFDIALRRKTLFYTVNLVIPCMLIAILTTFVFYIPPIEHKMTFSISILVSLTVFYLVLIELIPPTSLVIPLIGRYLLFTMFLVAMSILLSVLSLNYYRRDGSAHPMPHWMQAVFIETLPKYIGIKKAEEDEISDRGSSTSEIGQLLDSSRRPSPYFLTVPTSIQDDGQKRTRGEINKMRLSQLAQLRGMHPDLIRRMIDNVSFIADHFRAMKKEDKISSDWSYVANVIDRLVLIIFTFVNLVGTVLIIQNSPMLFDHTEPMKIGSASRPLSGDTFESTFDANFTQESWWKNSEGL
SMILES,Response to agonist [1],Change in sensitivity versus N2 ([2]; 5 μM Lev),Concentrations with potential channel-block effect [1],EC50 [1] [nM],"Reduction of thrashing motility ([2]; 40 μM Mor, 10 minutes exposure) [%]","Percentage reduction of thrashes min^-1 ([2]; 50 μM Pyr, 10 minutes of drug exposure) [%]"
"c1ccc([C@H]2CN3CCSC3=N2)cc1 [Lev, (-)-tetramisole hydrochloride]",very responsive,no significant change,–,–,–,–
"Cc1ccsc1/C=C/C1=NCCCN1C [Mor, morantel]",weak response,–,above 30 μM,410 ± 230,62.7,–
"CN1CCCN=C1/C=C/c1cccs1 [Pyr, pyrantel]",–,–,–,–,–,61.6
